From patent publication US5728684A, “Determination of prodrugs metabolizable by the liver and therapeutic use thereof” (priority 1994, dated 1998)

What was measured:
[1] = Michaelis constant / Vmax of 2-pyrimidinone deoxyribose analogs with the liver enzyme; assay type: biochemical, rat; conditions: rat, liver aldehyde oxidase
Experimental: (§1) Rat hepatic tissue was washed with ice-cold 1.15% KCl and blotted dry. The tissue was then homogenized with a tissue homogenizer, in a volume of 1.15% KCl that was 3 times the tissue weight, to form a 25% (w/v) homogenate. The homogenate was then centrifuged at 10,000 g for 10 minutes at 4° C. The resulting supernatant was filtered through Miracloth (similar to cheese cloth) then dialyzed overnight against 50 mM Tris-HCl buffer pH 7.5 and stored at -80° C. before use. Rat hepatocytes were obtained by a perfusion technique then the cells were extracted with 10 mM phosphate buffer, pH 7.5, containing 1M KCl and dialyzed for 4 hours against 50 mM Tris-HCl buffer pH 7.5.
(§2) For the standard assay condition, the reaction mixture contained 50 mM Tris-HCl, pH 7.5, 1 mM EDTA, 180 μM of IPdR (or its analogs) and approximately 0.01 mg protein of 10,000 g supernatant of tissue homogenate in a final volume of 500 μl and the incubation was at 37° C. for 10 minutes unless specified otherwise. 300 μl of reaction mixture was removed at the end of incubation and mixed with 630 μl acetonitrile then agitated. The precipitated protein were removed by centrifugation and the supernatant was lyophilized to dryness. The samples were reconstituted to the original aliquot volume with the HPLC mobile phase buffer and analyzed on a Alltech RP-18 column. IPdR, IUdR and IU were detected at a UV absorption wavelength of 230 nm, and IPdR was also detected at a UV absorption wavelength of 335 nm. The mobile phase was 10% acetonitrile/90%mM ammonium acetate, pH 6.8 and the flow rate was 1 ml/minute. Standard curves of IPdR and IUdR were established from the integration value of known concentrations.
(§3) Several 2-pyrimidinone deoxyribose analogs were examined for the conversion to their deoxyuridine counterparts. […] Nevertheless the relative Vmax for IPdR in the reaction at pH 7.5 and pH 9.5 is the same. […] The synthetic substrates for aldehyde oxidase appear to be better than its natural substrates, N^1 -methylnicotinamide and acetaldehyde, as judged by the potency of inhibition of N^1 -methylnicotinamide and acetaldehyde to the IPdR oxidation reaction (Table IV). The rate of reactivity of the liver enzyme with different IPdR analogs follows the order EPdR, IP, IPdR, 5-bromo-2-pyrimidinone deoxyribose (BPdR) and 5-methyl-2-pyrimidinone deoxyribose (MPdR) or 5-ethyl-2-pyrimidinone deoxyribose (EtPdR) (Table V). Electronegative substituents in the 5-position seemed to increase the substrate activity in this oxidation reaction.

[2] = test system: aldehyde oxidase; assay: as above; assay type: biochemical, rat; conditions: pH 7.5 versus pH 9.5
Experimental: as §1, §2, §3

With O=c1ncc(I)cn1[C@H]1C[C@H](O)[C@@H](CO)O1 [IPdR, 1-(2-deoxy-β-D-ribofuranosyl)-5-(iodo)-2-pyrimidinone] the Km ([1]; pH 7.5) was 150 µM, the Km ([1]; pH 9.5) was 87 µM and the “relative Vmax” value [2] was “the same”.
